The record followed here is ChEMBL document CHEMBL4007418, “Application of Off-Rate Screening in the Identification of Novel Pan-Isoform Inhibitors of Pyruvate Dehydrogenase Kinase” (J Med Chem, 2017).

Experiment [1] deals with T1, Heat shock protein HSP 90-alpha (Homo sapiens, UniProt P07900). In words: Displacement of fluorescein-labelled VER160364 from HSP90A (unknown origin) after 90 mins by fluorescence polarization assay. Background: Polarisation of emitted light reports the rotation of a fluorescent probe.
The target in experiment [2] is [Pyruvate dehydrogenase (acetyl-transferring)] kinase isozyme 2, mitochondrial (Homo sapiens, UniProt Q15119). Kind of experiment: Inhibition of fluorescein-labelled VER160364 binding to PDHK2 (unknown origin) after 90 mins by fluorescence polarization assay.
The target in experiment [3] is T2, [Pyruvate dehydrogenase (acetyl-transferring)] kinase isozyme 4, mitochondrial (Homo sapiens, UniProt Q16654). In words: Inhibition of fluorescein-labelled VER160364 binding to PDHK4 (unknown origin) after 90 mins by fluorescence polarization assay.
T2 sequence (Q16654 whole entry): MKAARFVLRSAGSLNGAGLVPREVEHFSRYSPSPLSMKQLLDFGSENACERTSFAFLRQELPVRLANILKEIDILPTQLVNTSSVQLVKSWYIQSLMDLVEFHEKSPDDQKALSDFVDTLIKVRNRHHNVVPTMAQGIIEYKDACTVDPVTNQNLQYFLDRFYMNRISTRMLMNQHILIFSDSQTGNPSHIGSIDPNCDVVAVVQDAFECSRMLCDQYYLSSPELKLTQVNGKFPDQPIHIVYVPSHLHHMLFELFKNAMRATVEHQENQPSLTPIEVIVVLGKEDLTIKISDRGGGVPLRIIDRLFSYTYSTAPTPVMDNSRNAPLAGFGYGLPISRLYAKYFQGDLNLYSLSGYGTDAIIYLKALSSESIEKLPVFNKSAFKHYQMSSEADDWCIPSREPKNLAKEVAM
Experiment [4] concerns the target T3, [Pyruvate dehydrogenase (acetyl-transferring)] kinase isozyme 1, mitochondrial (Homo sapiens, UniProt Q15118). In words: Inhibition of fluorescein-labelled VER160364 binding to PDHK1 (unknown origin) after 90 mins by fluorescence polarization assay.
Experiment [5] deals with [Pyruvate dehydrogenase (acetyl-transferring)] kinase isozyme 3, mitochondrial (Homo sapiens, UniProt Q15120). In words: Inhibition of fluorescein-labelled VER160364 binding to PDHK3 (unknown origin) after 90 mins by fluorescence polarization assay.
Chain of [Pyruvate dehydrogenase (acetyl-transferring)] kinase isozyme 3, mitochondrial (Q15120 whole entry): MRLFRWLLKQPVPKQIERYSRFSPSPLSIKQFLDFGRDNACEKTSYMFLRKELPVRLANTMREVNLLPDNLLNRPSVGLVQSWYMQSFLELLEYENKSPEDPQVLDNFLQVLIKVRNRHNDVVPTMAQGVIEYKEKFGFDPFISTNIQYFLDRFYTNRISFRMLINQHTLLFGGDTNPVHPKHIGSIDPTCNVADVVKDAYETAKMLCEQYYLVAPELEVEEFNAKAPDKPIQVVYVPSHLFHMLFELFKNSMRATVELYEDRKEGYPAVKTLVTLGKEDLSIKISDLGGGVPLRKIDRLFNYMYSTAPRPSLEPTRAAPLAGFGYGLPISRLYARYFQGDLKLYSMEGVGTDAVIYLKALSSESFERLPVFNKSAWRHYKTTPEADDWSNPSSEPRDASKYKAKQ
Experiment [6] addresses T3, [Pyruvate dehydrogenase (acetyl-transferring)] kinase isozyme 1, mitochondrial. Kind of experiment: Binding affinity to PDHK1 (unknown origin) by surface plasmon resonance method.
The target is the same in experiment [7]. In words: Inhibition of PDHK1 in human PC3 cells assessed as decrease in phosphorylation of E1alpha subunit at serine 293 residue after 1 hr by ELISA. It is filed as cell-based. For orientation: In an ELISA, binding on a coated surface is turned into a signal by an enzyme label.
Experiment [8] shares this target. Kind of experiment: Inhibition of PDHK1 (unknown origin) assessed as decrease in phosphorylation of E1alpha subunit at serine 293 residue after 1 hr by DELFIA.
In experiment [9] the target is T1, Heat shock protein HSP 90-alpha. In words: Dissociation rate from HSP90A (unknown origin) by surface plasmon resonance method.
The subject of experiment [10] is PC-3. In words: Antiproliferative activity against human PC3 cells after 96 hrs by sulphorhodamine B assay. The experiment is classed as functional. The note with it: PC-3, 96 h. Background: The SRB assay estimates cell density from bound dye.
For experiment [11], the target named is T3, [Pyruvate dehydrogenase (acetyl-transferring)] kinase isozyme 1, mitochondrial. Kind of experiment: Binding affinity to PDHK1 (unknown origin) by isothermal titration calorimetry.
For experiment [12], the target named is T1, Heat shock protein HSP 90-alpha. Kind of experiment: Displacement of fluorescein-labelled VER160364 from HSP90A (unknown origin) at 200 uM after 90 mins by fluorescence polarization assay relative to control.
The nature of experiment [13]: Inhibition of PDHK (unknown origin). On the set-up: species or system Homo sapiens.
The target in experiment [14] is T3, [Pyruvate dehydrogenase (acetyl-transferring)] kinase isozyme 1, mitochondrial. Kind of experiment: Inhibition of SUMO-tagged PDHK1 (unknown origin) in presence of [gamma-32P]ATP after 30 mins by SDS-PAGE based phosphor imaging method.
In experiment [15] the target is T2, [Pyruvate dehydrogenase (acetyl-transferring)] kinase isozyme 4, mitochondrial.
Description: Inhibition of PDHK4 (unknown origin) assessed as decrease in phosphorylation of E1alpha subunit at serine 293 residue after 1 hr by DELFIA

T3 sequence (Q15118 whole entry): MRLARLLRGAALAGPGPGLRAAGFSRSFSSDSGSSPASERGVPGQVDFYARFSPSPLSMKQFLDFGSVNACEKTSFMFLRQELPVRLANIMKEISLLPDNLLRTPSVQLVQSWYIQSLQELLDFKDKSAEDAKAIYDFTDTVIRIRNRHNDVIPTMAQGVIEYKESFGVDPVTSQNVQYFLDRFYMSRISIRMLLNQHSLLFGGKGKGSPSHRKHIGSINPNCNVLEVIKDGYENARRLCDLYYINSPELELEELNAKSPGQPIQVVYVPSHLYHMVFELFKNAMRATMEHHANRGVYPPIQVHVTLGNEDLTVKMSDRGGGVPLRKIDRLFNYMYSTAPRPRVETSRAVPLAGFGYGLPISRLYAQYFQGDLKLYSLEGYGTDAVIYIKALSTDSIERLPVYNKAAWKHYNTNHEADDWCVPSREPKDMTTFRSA

The IC50 is the concentration at which inhibition is half-maximal. As a reminder, the Ki is a measure of affinity in units of concentration, obtained from inhibition or displacement. The low end stands for tighter binding, the high end for weaker binding. For the compound `COc1ccc(N(C)C(=O)c2ccc(O)cc2O)cc1`, the IC50 is 3.02 µM in [1] and 2.23 µM in experiment [2]. For the same compound, the Ki is 1.38 µM in experiment [1]; 1.07 µM in [2]; 1.27 µM in [3]; 1.93 µM in [4]; 0.55 µM in experiment [5].
Take `CN(C)C(=O)c1ccc(N(C)C(=O)c2ccc(O)cc2O)cc1`: in [1], the IC50 was determined as 2.97 µM and the affinity, expressed as Ki, was 1.23 µM. Also, in [2], the IC50 is 0.35 µM and the Ki stood at 0.15 µM.
As usually defined, the Kd is the free concentration of one partner at which half of the binding sites on the other are occupied at equilibrium, for simple one-to-one binding. Low readings indicate a tighter complex, high ones a looser complex. For the compound `Cc1cnc(Cl)nc1-c1ccc2c(c1)CC[C@H](c1cccnc1)N2C(=O)c1ccc(O)cc1O`, the Ki in experiment [1] was over 50 µM. For the same compound, the Kd in experiment [6] was 0.01 µM. Besides, the IC50 in experiment [7] came to 5.77 µM; in experiment [8], 0.015 µM.
As usually defined, the koff is a measure of how fast the partners let go of each other. Take `O=C(c1ccc(O)cc1O)N(Cc1ccccc1)c1ccccc1`: the koff in [6] is 0.26 s⁻¹; in experiment [9] it was 0.14 s⁻¹. In [4], this compound returned a Ki of 0.98 µM.
Consider `COc1ccc(CN(C)C(=O)c2ccc(N(Cc3ccccc3)C(=O)c3ccc(O)cc3O)cc2)cc1`, for which the Ki in experiment [1] is over 50 µM; in [4] it was 0.241 µM. For the same compound, the affinity in [6], expressed as Kd, was 0.01 µM. Besides, the half-maximal inhibitory concentration (IC50) worked out at 10.6 µM in experiment [7] and 0.201 µM in experiment [8].
Take `C[C@H]1CCc2cc(F)ccc2N1C(=O)c1ccc(O)cc1O`: the Ki in experiment [1] is 3.48 µM; in experiment [4] it was 0.09 µM. Also, the koff in experiment [6] was 0.08 s⁻¹; in experiment [9] it was 0.18 s⁻¹.
The GI50 is the concentration that inhibits growth by half. A lower GI50 goes with greater sensitivity of the cells. `C[C@H]1CCc2cc(-c3nc(Cl)nc4[nH]ccc34)ccc2N1C(=O)c1ccc(O)cc1O`: the Ki in experiment [1] was over 50 µM; in [4], 0.64 µM. In experiment [6], this compound displayed a Kd of 0.009 µM. In experiment [10], halving of growth (GI50) required 15 µM. Besides, the IC50 is 1.82 µM in experiment [7] and 0.135 µM in [8].
With `CN(Cc1ccc2nccnc2c1)C(=O)c1ccc(N(Cc2ccccc2)C(=O)c2ccc(O)cc2O)cc1`, the Ki in [1] stood at 1.02 µM; in experiment [4], 0.026 µM. The affinity in experiment [6], expressed as Kd, was 0.001 µM. Besides, the IC50 in [7] was determined as 5.65 µM; in experiment [8], 0.0627 µM.
The corresponding values for `C[C@H]1CCc2cc(-c3nc(Cl)nc4ccsc34)ccc2N1C(=O)c1ccc(O)cc1O` are 1.78 µM, 0.467 µM, 0.01 µM, 2.78 µM and 0.198 µM.
On to `C[C@H]1CCc2cc(C(=O)N(C)Cc3ccc4nccnc4c3)ccc2N1C(=O)c1ccc(O)cc1O`, for which the Ki in [1] worked out at 2.51 µM; in experiment [4], 0.016 µM. This compound registered a Kd in [6] of 0.006 µM. This compound gave a GI50 in [10] of 30 µM. Further, the IC50 came out at 3.01 µM in experiment [7] and 0.036 µM in experiment [8].
For `CN(C(=O)c1ccc(O)cc1O)c1ccc(C(=O)N2CC(C(=O)O)Oc3ccccc32)cc1` (configuration not stated), the values for the Ki in experiment [1] and in [4] were 0.184 µM and 0.26 µM, respectively.
For `Cc1cc2ccccc2nc1-c1ccc2c(c1)CC[C@H](C)N2C(=O)c1ccc(O)cc1O`, the Ki was determined as 10.6 µM in experiment [1] and 0.124 µM in experiment [4]. Besides, the results for the Kd in [6] and in experiment [11] were 0.115 µM and 0.153 µM, respectively. Besides, it took 14 µM to inhibit growth in [10] by half (GI50). Besides, the IC50 in experiment [7] was 2.68 µM; in [8], 0.139 µM.
As to `CCNC(=O)c1noc(-c2cc(Cl)c(O)cc2O)c1-c1ccc(CN2CCOCC2)cc1C`, the Ki in [1] came to 0.032 µM; in [4], 0.136 µM. Besides, the koff worked out at 0.014 s⁻¹ in experiment [6] and 0.001 s⁻¹ in experiment [9].
On to `Cc1cnc(Cl)nc1-c1ccc(N(Cc2ccc(CN3CCCC3)cc2)C(=O)c2ccc(O)cc2O)cc1`, for which the Ki in [1] stood at 3.21 µM; in experiment [4], 0.037 µM. The same compound showed a Kd in experiment [6] of 0.078 µM. In experiment [10], this compound came in with a GI50 of 38 µM. The IC50 turned out to be 2.15 µM in [7] and 0.101 µM in experiment [8].
By inhibition is commonly meant the relative decrease from the control value, in per cent. A low value points to little suppression. In [2], `CCNC(=O)CN(C(=O)c1ccc(O)cc1O)c1ccc(OC)cc1` displayed an IC50 of 4.46 µM and a Ki of 2.17 µM. In experiment [12], this compound returned an inhibition of 74%.
For `COc1cc2c(cc1OC)C(c1cccnc1)N(C(=O)c1ccc(O)cc1O)CC2` (configuration not stated), the koff in experiment [6] was 0.019 s⁻¹; in [9], 0.29 s⁻¹.
Consider `Cc1cnc(Cl)nc1-c1ccc2c(c1)CC[C@H](C)N2C(=O)c1ccc(O)cc1O`, for which the inhibitory constant (Ki) in experiment [1] was 1.98 µM; in experiment [4] it was 0.037 µM. The Kd turned out to be 0.019 µM in [6] and 0.032 µM in experiment [11]. The GI50 in experiment [10] worked out at 40 µM. For the same compound, the IC50 in [7] stood at 2.74 µM; in experiment [8], 0.063 µM.
For the compound `C[C@@H]1CCc2cc(F)ccc2N1C(=O)c1ccc(O)cc1O`, the koff in experiment [6] was determined as 0.27 s⁻¹; in experiment [9] it was 0.6 s⁻¹. In addition, the inhibition constant Ki in experiment [4] is 1.17 µM. The compound also registered an inhibition in experiment [12] of 62%.
In experiment [1], `Cc1cnc(Cl)nc1-c1ccc(N(Cc2ccc(CNC(=O)C(F)F)cc2)C(=O)c2ccc(O)cc2O)cc1` returned a Ki of over 100 µM. Moreover, the GI50 in experiment [10] was 26.2 µM.
Regarding `C[C@@H]1CN(C(=O)[C@@](C)(O)C(F)(F)F)[C@@H](C)CN1C(=O)c1ccc(C#N)cc1`, the IC50 in experiment [7] was 0.066 µM.
`Cc1cnc(Cl)nc1-c1ccc(N(Cc2ccccc2)C(=O)c2ccc(O)cc2O)cc1`: the Ki in experiment [1] stood at 6.55 µM; in [4], 0.067 µM. Besides, the Kd was found to be 0.016 µM in experiment [6] and 0.06 µM in experiment [11]. Further, the GI50 in experiment [10] was over 40 µM. The IC50 was determined as 1.72 µM in [7] and 0.072 µM in [8].
For the compound `C[C@@H]1C[C@H]2O[C@@H]2/C=C\C=C\C(=O)Cc2c(Cl)c(O)cc(O)c2C(=O)O1` [RADICICOL], the IC50 turned out to be 1200 µM in experiment [13] and 230 µM in experiment [14].
In [2], `CCN(CC)CCN(C(=O)c1ccc(O)cc1O)c1ccc(OC)cc1` yielded an IC50 of 2.78 µM and a Ki of 1.33 µM. In experiment [12], the inhibition worked out at 79%.
`CN(C)C(=O)c1ccc(S(=O)(=O)c2ccc(NC(=O)[C@@](C)(O)C(F)(F)F)c(Cl)c2)cc1`: the IC50 in experiment [7] came to 0.041 µM.
On to `CC1CCc2cc(F)ccc2N1C(=O)c1ccc(O)cc1O` (racemic), for which the Ki was 9.15 µM in experiment [1] and 0.2 µM in experiment [4]. In addition, the koff in experiment [6] stood at 0.08 s⁻¹; in experiment [9], 0.23 s⁻¹.
Turning to `O=S(=O)(c1ccc(O)cc1O)N1Cc2cc(O)cc(O)c2C1`, the values for the IC50 in [1], in experiment [15] and in [8] were 47 µM, 0.84 µM and 2.1 µM, respectively.
